Values after ≈ are worked out from the molar mass of the structure shown. Values joined by “and” are separate entries in the source; they are usually repeats but may differ in a detail not shown here. Identical values can stand only once. Like-named read-outs stand apart in the source and are kept apart here. Where a SMILES comes first, the peptide text is derived from it.
Tests used:
L. monocytogens KCTC3710 = type: cell-based, Listeria monocytogenes
Description: (§1) In order to evaluate the antimicrobial activity of the peptides prepared by the method of above 1, a minimal inhibitory concentration (MIC) value as the minimum concentration of a peptide, in which cells are not divided, was measured.
(§2) Specifically, the strains shown in Table 3 below were purchased, cultured in a medium having a constitutional composition suitable for each strain to a mid-log phase, and then diluted to a concentration of 2×10^4 cells/100 μl to prepare the product on a micro-titration plate (Nunc, USA). Then, PEP27, PEP27-1, PEP27-2 or PEP27-5 peptide synthesized in the above 1 was added to each well by serial dilution ½ times, followed by incubation at 37° C. for 18 hours.

[1] = system: red blood cells of a rat (Balb/c); settings: 37° C., 1 hour
Description: In order to compare the cytotoxicity of the peptides prepared by the method of above 1, erythrocyte hemolytic activity of each of the synthesized peptides was measured.
Specifically, red blood cells of a rat (Balb/c, 6 weeks old, female) were diluted with PBS (pH 7.0) to a concentration of 8%, and PEP27, PEP27-1, PEP27-2 and PEP27-5 peptides were used for treatment of the cells at concentrations of 3.13, 6.25, 12.5, 25.01 50.0 and 100.0 μM/well, respectively, followed by reaction at 37° C. for 1 hour. Then, an amount of hemoglobin contained in the supernatant obtained by centrifugation at 1,000×g was determined by measuring the absorbance at a wavelength of 414 nm. As a control which is a standard for the degree of cell destruction, the absorbance of the obtained supernatant was measured after treatment using 1% Triton X-100 (Sigma, USA) and reaction at 37° C. for 1 hour. With reference to 100% erythrocytes hemolysis activity, hemolysis of each peptide was calculated from the measured absorbance using Equation 1 below. Erythrocyte destruction ability (%)=(Absorbance A−Absorbance B)/(Absorbance C−Absorbance B)×100 [Equation 1]
(wherein, absorbance A represents the absorbance of a reaction solution treated with each peptide measured at a wavelength of 414 nm; absorbance B represents the absorbance of a reaction solution treated with PBS measured at a wavelength of 414 nm; and absorbance C represents the absorbance of a reaction solution treated with 1% Triton X-100 measured at a wavelength of 414 nm).

B. subtilis KCTC1998 = type: cell-based, Bacillus subtilis
Description: as §1, §2

E. coli CCARM1238 [2] = type: cell-based, Escherichia coli; settings: E. coli CCARM1238, antibiotics-tolerant; 37° C., 18 hours
Description: as §1, §2

E. coli ATCC27325 [3] = type: cell-based, Escherichia coli
Description: as §1, §2

P. aeruginosa ATCC15692 = type: cell-based, Pseudomonas aeruginosa
E. coli ATCC25922 = type: cell-based, Escherichia coli
Description: (§3) Biofilms may form on a wide variety of surfaces, including living or dead surfaces, and biofilm-associated bacteria are more tolerant to antibiotics than planktonic bacterial cells, making them antibiotic-resistant. To assess the efficacy of PEP27-2 against biofilms, we observed the anti-biofilm activity of PEP27-2 in S. aureus (ATCC 25923 and CCARM 3090), E. coli (ATCC 25922 and CCARM 1238), and P. aeruginosa (ATCC 27853 and 4891).
(§4) Specifically, among the strains listed in Table 3 above, Staphylococcus aureus, E. coli and Pseudomonas erujinosa, respectively, were cultured in each medium to a mid-log phase, diluted to a cell concentration of 5×10^4 cells/100 μl, and then, inoculated into a micro-plate (SPL). Then, PEP27-2 peptide was diluted 1/10 times with 10 mM PBS solution (pH 7.2) and 10 μl of the solution was added to each well, followed by incubation at 37° C. for 24 hours. After completely removing the supernatant, the solution was fixed with 100% methanol for 15 minutes, stained with a crystal violet dye solution for 1 hour, washed 3 times, and then dissolved in 95% ethanol, followed by measuring the absorbance at a wavelength of 595 nm using a micro titration plate reader, thereby determining a biofilm minimal inhibitory concentration value for each strain.

E. coli CCARM1238 [4] = type: cell-based, Escherichia coli; settings: 37° C., 24 hours
Description: as §3, §4

E. coli ATCC27325 [5] = type: cell-based, Escherichia coli; remark: listed apart in the source
Description: as §3, §4

[6] = Calcein release from LUVs; settings: P/L ratio of 0.05
Description: To examine the mechanism of action of PEP27 and PEP27-2, we evaluated the changes in bacterial cell membrane permeability by monitoring the release of calcein, a fluorescent marker, from calcein entrapped LUVs with different lipid bilayer compositions.
Peptide-induced membrane permeabilization was quantified by monitoring calcein release from LUVs (n=3 per condition). Different calcein-entrapped LUVs [PE/PG (7/3) or PC/CH/SM (1/1/1)] were prepared as described above, except that the dry lipid films were resuspended in 1 mL of PBS (pH 7.2) containing 70 mM calcein. Gel filtration chromatography on a Sephadex G-50 column was performed to separate free calcein from that entrapped in LUVs. Thereafter, the LUVs with entrapped calcein were mixed with peptides at various ratios, and the fluorescence of the released calcein was measured with a SpectraMax M3 Multi-Mode Microplate Reader (Molecular Devices, Sunnyvale, CA, USA) at excitation and emission wavelengths of 480 and 520 nm, respectively.

S. aureus ATCC29213 = assay: microbe, parasite or virus in culture; settings: ATCC29213, 18 h
Summary of the method: (§5)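 Peptide growth inhibition measured by twofold dilution against mid-log bacteria (2×10^4 cells/100 μl), 37° C, 18 hours; endpoint was absence of cell division. Meropenem, ceftazidime, ceftriaxone and vancomycin were run in parallel.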

S. aureus ATCC25923 = assay: microbe, parasite or virus in culture; settings: ATCC25923, 18 h
Summary of the method: as §5

P. aeruginosa ATCC27853 = assay: microbe, parasite or virus in culture; settings: ATCC27853, 18 h
Summary of the method: as §5

[7] = Peptide concentration 100 μM, 100% = 1% Triton X-100

CC[C@H](C)[C@H](NC(=O)CN)C(=O)NCC(=O)N[C@@H](C)C(=O)N[C@H](C(=O)N[C@@H](CC(C)C)C(=O)N[C@@H](CCCCN)C(=O)N[C@H](C(=O)N[C@@H](CC(C)C)C(=O)N[C@H](C(=O)N[C@H](C(=O)NCC(=O)N[C@@H](CC(C)C)C(=O)N1CCC[C@H]1C(=O)N[C@@H](C)C(=O)N[C@@H](CC(C)C)C(=O)N[C@H](C(=O)N[C@@H](CO)C(=O)N[C@@H](Cc1c[nH]c2ccccc12)C(=O)N[C@H](C(=O)N[C@@H](CCCCN)C(=O)N[C@@H](CCCNC(=N)N)C(=O)N[C@@H](CCCCN)C(=O)N[C@@H](CCCNC(=N)N)C(=O)N[C@@H](CCC(N)=O)C(=O)N[C@@H](CCC(N)=O)C(N)=O)[C@@H](C)CC)[C@@H](C)CC)[C@@H](C)O)[C@@H](C)O)C(C)C)C(C)C [Melittin, reference compound] showed a Minimal inhibitory concentration (L. monocytogens KCTC3710; L. monocytogens KCTC3710, Gram-positive, 37° C., 18 hours) of 4 µM (≈ 11.4 µg/mL), an Erythrocyte destruction ability ([1]; Peptide concentration 3.13 μM) of 27.33% and an Erythrocyte destruction ability ([1]; Peptide concentration 6.25 μM) of 49.41%. For the same compound, the Erythrocyte destruction ability ([1]; Peptide concentration 12.5 μM) was 69.75%, the Erythrocyte destruction ability ([1]; Peptide concentration 25 μM) was 83.99% and the Erythrocyte destruction ability ([1]; Peptide concentration 50 μM) was 97.76%. For the same compound, the Erythrocyte destruction ability [1, 7] was 99.17%, the Minimal inhibitory concentration (B. subtilis KCTC1998; B. subtilis KCTC1998, Gram-positive, 37° C., 18 hours) was 4 µM (≈ 11.4 µg/mL) and the Minimal inhibitory concentration (E. coli CCARM1238 [2]) was 4 µM (≈ 11.4 µg/mL). The Minimal inhibitory concentration (E. coli ATCC27325 [3]; E. coli ATCC27325, Gram-negative, 37° C., 18 hours) was 2 µM (≈ 5.69 µg/mL), the “Biofilm minimal inhibitory concentration” value (P. aeruginosa ATCC15692; P. aeruginosa ATCC15692, 37° C., 24 hours) was 4 µM and the “Biofilm minimal inhibitory concentration” value (E. coli ATCC25922; E. coli ATCC25922, 37° C., 24 hours) was 4 µM. For the same compound, the “Biofilm minimal inhibitory concentration” value (E. coli CCARM1238 [4]) was 4 µM, the “Biofilm minimal inhibitory concentration” value (E. coli ATCC27325 [5]; E. coli ATCC27325, 37° C., 24 hours) was 4 µM and the maximum calcein leakage [6] was 100%.

CSCC[C@H](N)C(=O)N[C@@H](Cc1c[nH]c2ccccc12)C(=O)N[C@@H](CCCCN)C(=O)N[C@@H](Cc1c[nH]c2ccccc12)C(=O)N[C@@H](Cc1ccccc1)C(=O)N[C@@H](Cc1c[nH]cn1)C(=O)N[C@@H](CC(N)=O)C(=O)N[C@H](C(=O)N[C@@H](CC(C)C)C(=O)N[C@@H](CO)C(=O)N[C@@H](Cc1c[nH]c2ccccc12)C(=O)NCC(=O)N[C@@H](Cc1c[nH]c2ccccc12)C(=O)N[C@@H](CC(C)C)C(=O)N[C@@H](CC(C)C)C(=O)N[C@@H](C)C(=O)N[C@@H](CC(=O)O)C(=O)N[C@@H](CCCCN)C(=O)N[C@@H](CCCNC(=N)N)C(=O)N1CCC[C@H]1C(=O)N[C@@H](C)C(=O)N[C@@H](CCCNC(=N)N)C(=O)N[C@@H](CC(=O)O)C(=O)N[C@@H](Cc1ccc(O)cc1)C(=O)N[C@@H](CC(N)=O)C(=O)N[C@@H](CCCNC(=N)N)C(=O)N[C@@H](CCCCN)C(N)=O)C(C)C [PEP27-2] (H-MWKWFHNVLSWGWLLADKRPARDYNRK-NH2) gave a Minimal inhibitory concentration (L. monocytogens KCTC3710; KCTC3710, 18 h) of 8 µM (≈ 27.8 µg/mL), an Erythrocyte destruction ability ([1]; Peptide concentration 3.13 μM) of 0% and an Erythrocyte destruction ability ([1]; Peptide concentration 6.25 μM) of 2.30%. It also gave an Erythrocyte destruction ability ([1]; Peptide concentration 12.5 μM) of 14.96%, an Erythrocyte destruction ability ([1]; Peptide concentration 25 μM) of 40.51% and an Erythrocyte destruction ability ([1]; Peptide concentration 50 μM) of 62.47%. The Erythrocyte destruction ability [1, 7] was 75.8% and 75.84%, the Minimal inhibitory concentration (B. subtilis KCTC1998; KCTC1998, 18 h) was 4 µM (≈ 13.9 µg/mL) and the Minimal inhibitory concentration (E. coli CCARM1238 [2]) was 4 µM (≈ 13.9 µg/mL). The Minimal inhibitory concentration (E. coli ATCC27325 [3]; ATCC27325, 18 h) was 4 µM (≈ 13.9 µg/mL), the Minimal inhibitory concentration (S. aureus ATCC29213) was 2 µM (≈ 6.95 µg/mL) and the Minimal inhibitory concentration (S. aureus ATCC25923) was 2 µM (≈ 6.95 µg/mL). For the same compound, the Minimal inhibitory concentration (P. aeruginosa ATCC27853) was 4 µM (≈ 13.9 µg/mL), the “Biofilm minimal inhibitory concentration” value (P. aeruginosa ATCC15692; ATCC15692, 24 h) was 8 µM and the “maximum percent biofilm inhibition” value (E. coli ATCC25922; ATCC25922) was 91.8%. For the same compound, the “Biofilm minimal inhibitory concentration” value (E. coli ATCC25922; ATCC25922, 24 h) was 8 µM, the “Biofilm minimal inhibitory concentration” value (E. coli CCARM1238 [4]) was 8 µM and the “Biofilm minimal inhibitory concentration” value (E. coli ATCC27325 [5]; ATCC27325, 24 h) was 8 µM.
